Data published in ChEMBL document CHEMBL2086306, “Manadosterols A and B, sulfonated sterol dimers inhibiting the Ubc13-Uev1A interaction, isolated from the marine sponge Lissodendryx fibrosa” (J Nat Prod, 2012).

Assays:
[1] = target: Ubiquitin-conjugating enzyme E2 N/Ubiquitin-conjugating enzyme E2 variant 1 (Homo sapiens, UniProt P61088+Q13404); experiment: Inhibition of recombinant human Ubc13-Uev1A interaction expressed in Escherichia BL21 after 1.5 hrs by ELISA
[2] = target: Ubiquitin-conjugating enzyme E2 N/Ubiquitin-conjugating enzyme E2 variant 1 (Homo sapiens) (UniProt Q13404+P61088); experiment: Ratio of leucettamol A IC50 to compound IC50 for recombinant human Ubc13-Uev1A interaction expressed in Escherichia BL21

IC50 [1] [nM] | Ratio IC50 [2] | Compound
130 | – | C=C1CC(C)(C)[C@@H](/C=C/[C@@H](C)[C@H]2CC[C@H]3[C@@H]4C[C@H](OS(=O)(=O)O)[C@H]5C[C@@H](O)CC[C@]5(C)[C@H]4CC[C@]23C)[C@H]1CC(O)[C@@H](C)[C@H]1CC[C@H]2[C@@H]3C[C@H](OS(=O)(=O)O)[C@H]4C[C@H](OS(=O)(=O)O)[C@@H](OS(=O)(=O)O)C[C@]4(C)[C@H]3CC[C@]12C (stereo partly drawn) [MANADOSTEROL B]
90 | 1000 | CC1=CC(C)(C)[C@@H](/C=C\[C@@H](C)[C@H]2CC[C@H]3[C@@H]4C[C@H](OS(=O)(=O)O)[C@H]5C[C@H](O)[C@@H](OS(=O)(=O)O)C[C@]5(C)[C@H]4CC[C@]23C)[C@H]1CC[C@@H](C)[C@H]1CC[C@H]2[C@@H]3C[C@H](OS(=O)(=O)O)[C@H]4C[C@H](OS(=O)(=O)O)[C@@H](OS(=O)(=O)O)C[C@]4(C)[C@H]3CC[C@]12C [MANADOSTEROL A]
